{
  "source": "patent US8937039B2",
  "about": "“Peptide-based peroxidase inhibitors and methods of using same” (The Medical College of Wisconsin, Inc., priority 2009, dated 2015)",
  "key": {"MPO [1]": {"biological_target": "T1, MPO (Homo sapiens, UniProt P05164)", "T1 sequence (P05164 49-745)": "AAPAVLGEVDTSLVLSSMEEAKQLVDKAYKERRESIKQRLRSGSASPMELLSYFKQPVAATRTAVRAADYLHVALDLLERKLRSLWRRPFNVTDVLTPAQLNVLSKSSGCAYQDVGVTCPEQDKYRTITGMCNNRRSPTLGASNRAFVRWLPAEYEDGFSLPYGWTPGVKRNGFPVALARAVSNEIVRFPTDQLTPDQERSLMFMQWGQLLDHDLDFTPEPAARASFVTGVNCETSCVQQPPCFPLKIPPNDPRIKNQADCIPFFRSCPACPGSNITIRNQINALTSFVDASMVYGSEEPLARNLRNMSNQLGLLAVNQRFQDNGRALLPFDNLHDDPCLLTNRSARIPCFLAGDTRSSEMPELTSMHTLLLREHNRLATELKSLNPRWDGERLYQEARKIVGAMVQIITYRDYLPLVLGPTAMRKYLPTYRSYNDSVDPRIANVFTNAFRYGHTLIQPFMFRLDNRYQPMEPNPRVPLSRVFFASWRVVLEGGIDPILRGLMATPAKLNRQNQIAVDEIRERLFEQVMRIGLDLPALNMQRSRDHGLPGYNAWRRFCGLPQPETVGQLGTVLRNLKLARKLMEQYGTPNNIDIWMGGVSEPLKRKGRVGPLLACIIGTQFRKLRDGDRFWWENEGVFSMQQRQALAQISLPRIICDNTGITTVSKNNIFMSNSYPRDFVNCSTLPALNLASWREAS", "assay": "MPO-mediated LDL oxidation (conjugated diene formation, 234 nm)", "assay_type": "biochemical", "parameters": "purchased Lee Biosolutions (St. Louis, Mo.)", "details": "for Conjugated diene formation in LDL (in words): MPO/H2O2 (300 μM)/nitrite, more than 2 hours", "procedure": "MPO-mediated oxidation of LDL. […] LDL oxidation was monitored at 234 nm at room temperature on a HP UV/VIS spectrometer. Absorbance traces represent the average of duplicate experiments.\nMPO-mediated LDL Oxidation. […] Rates of LDL oxidation were monitored at room temperature at 234 nm, the wavelength maximum for conjugated dienes.\nMPO-mediated LDL Conjugated Diene Formation: Reaction mixtures contained LDL (0.15 mg/mL), NaNO2 (100 μM), H2O2 (100 μM), MPO (20 nM) and increasing concentrations of KYC or equimolar concentrations of various compounds in a phosphate buffer (100 mM, pH 7.4) containing DTPA (100 μM). Rates of LDL conjugated diene formation were determined by following changes in absorbance at 234 nm, the wavelength maximum for conjugated dienes, on a UV-Vis spectrophotometer (Agilent Model 8453) at room temperature."}, "MPO [2]": {"biological_target": "T1, MPO", "assay": "MPO-mediated nitration of BSA (western blot for nitrotyrosine)", "assay_type": "biochemical", "parameters": "purchased Lee Biosolutions (St. Louis, Mo.)", "details": "for MPO-mediated BSA nitration (in words): H2O2 100 μM, nitrite 100 μM", "procedure": "MPO-mediated Nitration of Bovine Serum Albumin (BSA). BSA (0.5 mg/mL) was incubated with MPO (20 nM), H2O2 (100 μM), nitrite (100 μM) and increasing concentrations of KYC in phosphate buffer (100 mM, pH 7.4) containing DTPA (100 μM) for 30 min. Reactions were stopped by addition of catalase. Nitrotyrosine formation was assessed by western blot analysis.\nMPO-mediated Nitration of Bovine Serum Albumin (BSA): BSA (0.5 mg/mL) was incubated with MPO (20 nM), H2O2 (25 μM), NaNO2 (50 μM) and increasing concentrations of KYC in phosphate buffer (100 mM, pH 7.4) containing DTPA (100 μM) for 30 min. Reactions were halted by addition of catalase (2,000 units/mL). NO2Tyr formation was assessed by western blot analysis with an anti-NO2Tyr rabbit polyclonal antibody (EMD, Gibbstown, N.J.)."}, "[3]": {"assay": "Solubility in aqueous buffers", "assay_type": "physicochemical"}, "MPO [4]": {"biological_target": "T1, MPO", "assay": "MPO-mediated nitration of LDL (dot blot)", "assay_type": "biochemical", "parameters": "purchased Lee Biosolutions (St. Louis, Mo.)", "details": "MPO 50 nM, H2O2 50 μM, NaNO2 50 μM, 37° C., 4 h", "procedure": "MPO-mediated Nitration of LDL: LDL (0.5 mg/mL) was incubated with MPO (50 nM), H2O2 (50 μM), NaNO2 (50 μM) and increasing concentrations of KYC in phosphate buffer (100 mM, pH 7.4) containing DTPA (100 μM) at 37° C. for 4 h. Reactions were stopped by addition of catalase (2,000 units/mL). Formation of NO2Tyr was assessed by dot blot analysis. Briefly, LDL solutions were mixed with 1% SDS and centrifuged (12000 g, 15 min) Aliquots of supernatants were applied to a nitrocellulose membrane with a dot blot apparatus (Biorad model: Bio-Dot). The levels of NO2Tyr were visualized using a rabbit polyclonal anti-NO2Tyr antibody (EMD, Gibbstown, N.J.) and the ECL plus kit from Thermo-Peirce (Rockford, Ill.)."}, "MPO [5]": {"biological_target": "T1, MPO", "assay": "MPO-mediated LDL Trp oxidation (Trp fluorescence)", "assay_type": "biochemical", "parameters": "purchased Lee Biosolutions (St. Louis, Mo.)", "details": "MPO/H2O2/NO2−, 30 min, room temperature", "procedure": "MPO-mediated LDL Trp Oxidation: Reaction mixtures containing LDL (0.15 mg/mL), NaNO2 (100 μM), H2O2 (100 μM), MPO (20 nM) and increasing concentrations of KYC in a phosphate buffer (100 mM, pH 7.4) containing DTPA (100 μM) were incubated at room temperature for 30 min. Reactions were stopped by addition of catalase (2,000 units/mL) and the oxidation of Trp in LDL was determined by measuring changes in the intrinsic fluorescence of Trp (Ex 294 nm/Em 345 nm) using a LC-50 fluorometer (Perkin Elmer, Waltham Mass.)."}},
  "note": "Entries after “also recorded” stand apart in the source; their conditions may differ. Residues, ends and D or L forms follow the SMILES beside them.",
  "data": [
    {"compound": "CC(=O)N[C@@H](CCCCN)C(=O)N[C@@H](Cc1ccc(O)cc1)C(=O)N[C@@H](CS)C(N)=O", "note": "[KYC, N-acetyl Lysyltyrosylcysteine Amide] (Ac-Lys-Tyr-Cys-NH2)", "values": [
      {"measurement": "Conjugated diene formation in LDL (in words)", "setting": "MPO [1]; 20 μM KYC", "value": "totally suppresses"},
      {"measurement": "MPO/H2O2/nitrite-mediated LDL oxidation (in words)", "setting": "MPO [1]; 25 μM, H2O2 100 μM, NaNO2 100 μM", "value": "completely suppressed"},
      {"measurement": "MPO/H2O2-mediated LDL oxidation in the absence of nitrite (in words)", "setting": "MPO [1]; 25 μM, without NaNO2", "value": "inhibited; also recorded: did not increase LDL oxidation"},
      {"measurement": "Conjugated diene formation in LDL (in words)", "setting": "MPO [1]; 100 μM KYC", "value": "totally suppresses"},
      {"measurement": "inhibition at 12.5 µM", "setting": "MPO [2]; 12.5 μM KYC, H2O2 25 μM, NaNO2 50 μM, read-out: Inhibition of NO2Tyr formation in BSA", "value": 50, "unit": "%"},
      {"measurement": "MPO-mediated BSA nitration (in words)", "setting": "MPO [2]; 30 μM KYC", "value": "inhibits"},
      {"measurement": "NO2Tyr formation in BSA (in words)", "setting": "MPO [2]; 50 μM KYC, H2O2 25 μM, NaNO2 50 μM", "value": "essentially ablated"},
      {"measurement": "MPO-mediated BSA nitration (in words)", "setting": "MPO [2]; 250 μM KYC", "value": "essentially ablates"},
      {"measurement": "Solubility in water / aqueous buffers (in words)", "setting": "[3]", "value": "highly water soluble"},
      {"measurement": "NO2Tyr in LDL (in words)", "setting": "MPO [4]", "value": "markedly reduces"},
      {"measurement": "MPO-dependent oxidation of Trp residues in LDL (in words)", "setting": "MPO [5]", "value": "protected the Trp residues"}
    ]}
  ]
}
